Where two headings read alike, the source gives them in different places. No end group written: not given here.
Assays:
[1] = cited from earlier work
[2] = Expected increase in total circulating VSDL at originally selected doses; type: in vivo, human
Description: Since it was thought that subjects suffering significant CHF are unable to produce adequate endogenous amounts of natriuretic peptides to compensate for congestion, the present applicant had selected doses of exogenous VSDL infusion of 50 ng/kg/min, 100 ng/kg/min and 200 ng/kg/min for 60 minutes to ascertain the approximate amounts of exogenous VSDL required by late NHYA class III—NYHA class IV patients to reinstate homeostasis. Such doses were expected to result in an approximately 2-fold, 4-fold and 8-fold increase in total circulating VSDL, respectively. Further, the present applicant had particularly proposed an exogenous dose of VSDL at <100 ng/kg/min (for 60 mins) for the treatment of chronic CHF or ADCHF as a safe and effective dosage, since it has been identified that the release rate from the heart of VSDL with physiological stimuli is about 138 ng/kg body weight per minute^16 and similar dosages have been previously observed to cause a marked natriuresis and diuresis in healthy humans^17, 18 and, also, improved haemodynamic and renal parameters in persons with stable NYHA class III chronic CHF^10. The molar equivalent of the 100 ng/kg body weight dose (for 60 mins) is 26 pmol/kg body weight (for 60 mins). […] In particular, at 12.5 ng/kg/min (for 60 mins) and 25 ng/kg/min (for 60 mins). […]

[3] = tested on: subjects with chronic CHF or ADCHF (NYHA class III - NYHA class IV); assay: Example 1: treatment of ADCHF with iv administration of vessel dilator; type: in vivo, human
From the text: This example describes a study to examine whether VSDL administration to ADCHF patients will be safe and induce improvements in haemodynamic parameters, as well as renal, natriuretic and diuretic parameters, whilst regulating plasma volume and BP within clinically acceptable ranges and without seriously adverse side effects.
VSDL in the form of a white lyophilised powder (synthesised using standard protein synthesis method by Auspep Pty Ltd, Parkville, VIC, Australia), stored in an ultra low freezer (−80° C.), was reconstituted in a vial with 10 ml of 0.9% saline (preservative free) and aseptically transferred into a 20 ml syringe (that connects to a patient cannula) before use.
Initially, an iv dose of 12.5 ng/kg/min was infused into test subjects for 60 minutes with a syringe driver (Alaris Asena GS syringe driver; C are Fusion Corporation, San Diego, Calif., United States of America). This “safety dose” was chosen merely to trial the subjects for any adverse effects. Subsequently, a dose of 25 ng/kg/min (as infused for 60 minutes) was trialled. Additionally, a trial will be conducted with a dose of 50 ng/kg/min (for 60 minutes).
Test adult subjects, both male and female, showing either acute exacerbations of chronic CHF or ADCHF (ie in individuals who had not previously shown heart failure), were recruited for the study. The following inclusion and exclusion criteria were applied:
In order to be eligible, a subject must have chronic CHF or ADCHF (NYHA class III—NYHA class IV) defined as: • 1. Showing dyspnoea at rest or dyspnoea with minimal activity (ie difficulty breathing at rest while sitting, or difficulty breathing while lying flat or with one pillow, or difficulty breathing with minimal activity such as talking, eating); AND • 2. Showing at least one of the following signs: • Tachypnoea with respiratory rate >20 breaths per minute, OR • Pulmonary congestion/oedema with rales or crackles/crepitations at least a third above lung bases; AND • 3. At least one of the following objective measures: • Showing, by chest X-ray, pulmonary oedema/congestions OR • Circulating B-type natriuretic peptide (BNP) concentration of ≧400 pg/ml or circulating NT-proBNP concentration of ≧1000 pg/ml at presentation, OR • PCWP >20 mmHg OR • Showing systolic dysfunction within the last 12 months (EF<50%) as determined by TTE, nuclear testing, cardiac MRI or ventricular angiography); and be: • 4. Male and/or female, 18 years or older; and • 5. If a woman of child bearing potential, testing negative to 13-hCG. Exclusion Criteria: • 1. Evidence in the ED for Myocardial Infarction (MI) or high risk acute coronary syndrome within past 6 weeks, as determined by creatinine kinase (CK)/creatinine kinase muscle-brain isoenzyme (CK-MB) ≧2 times upper limit of normal or elevation of Troponin T at baseline >0.1 or as determined by Trans-Thoracic […] (TTE); • 2. Hypotension (SBP <90 mmHg), cardiogenic shock, volume depletion; • 3. Persistent, uncontrolled hypertension (SBP >180 mm Hg); • 4. Subjects with the presence of any CMR contra-indication (including PPM, cerebral aneurysm clips or non-MM approved metallic implant) are excluded from any MRI study component only; • 5. Congenital heart defects (including Ventricular Septal Defect, Atrial Septal Defect, Patent Ductus Arteriosus, Tetralogy of Fallot, and Tricuspid Atresia); • 6. Cardiac surgery within past 4 weeks; • 7. Diastolic heart failure (preserved left ventricular function—determined by known history, ie E:E prime ratio>15); • 8. Severe valvular heart disease: Aortic Stenosis <1.0 cm^2, any Idiopathic hypertrophic subaortic stenosis or Hypertrophic Obstructive Cardiomyopathy, acute Aortic Regurgitation grade 3 or 4 and Mitral Regurgitation grade 3 or 4; • 9. History of cerebrovascular accident (within past 4 weeks) as determined by MM or Computerised Tomography (CT) Scan; • 10. […]

[4] = Example 2: estimation of baseline and Cmax for VSDL following infusion (blood samples, mass spectroscopy); type: in vivo, human; settings: for half-life: read-out: estimated half-life (t1/2)
From the text: Following the surprising finding that beneficial effects for the treatment of chronic CHF can be achieved with doses that are much less than that which had been proposed, a study was undertaken to estimate the baseline levels of VSDL and Cmax (ie the peak VSDL concentration that is achieved) following infusion.
The baseline VSDL concentration (ie endogenous level) was estimated from an identical sample taken prior to infusion (ie “predose”).

[5] = tested on: patients with chronic, but stable, New York Heart Association (NYHA) Class III CHF; settings: cited from earlier work
[6] = 25 ng/kg/min iv for 60 mins, 24 hrs post-infusion
[7] = 25 ng/kg/min iv for 60 mins, Baseline
[8] = Subject #2, 12.5 ng/kg/min iv for 60 mins
[9] = Subject #3, 12.5 ng/kg/min iv for 60 mins
[10] = one subject, 25 ng/kg/min iv for 60 mins

## B-type natriuretic peptide [BNP, reference compound]
[1]; in vivo
  biological t1/2: < ½
  circulatory t1/2: ~3.1 min

## EVVPPQVLSEPNEEAGAALSPLPEVPPWTGEVSPAQR [VSDL]
[1]; previously reported
  biological t1/2: > 6 hours
  circulatory t1/2: 120 min
[2]; 100 ng/kg/min for 60 minutes
  expected increase in total circulating VSDL: ~4 fold
[2]; 200 ng/kg/min for 60 minutes
  expected increase in total circulating VSDL: ~8 fold
[3]; 12.5 ng/kg/min iv for 60 mins, three subjects
  safety risks seen by reviewers: no safety risks
[3]; [6]
  CK: 156 U/L
  CK-MB: 1.3 µg/L
  Troponin T: <0.02 µg/L
[3]; [7]
  CK: 188 U/L
  CK-MB: 2.0 µg/L
  Troponin T: <0.02 µg/L
[3]; [8]
  clinical state during the 24 hours following the infusion: stable during the 24 hours
  side-effects: global dyskinesis and no side-
  tolerability of infusion: infusion was well tolerated by
[3]; [9]
  clinical state during and within 24 hours following the infusion: clinically stable during this
  tolerability of infusion: subject tolerated the infusion
[3]; [10]
  safety risks seen by reviewers: no safety risks
  side effects: no side effects
  tolerability of infusion: well tolerated
[4]; 0.5 hrs following infusion
  Corrected Concentration: 4.376 ng/mL
[4]; 1 hrs following infusion
  Corrected Concentration: 4.376 ng/mL
[4]; 1.5 hrs following infusion
  Corrected Concentration: 1.176 ng/mL
[4]; 2 hrs following infusion
  Corrected Concentration: 0.556 ng/mL
[4]; 3 hrs following infusion
  Corrected Concentration: 0.136 ng/mL
[4]; 4 hrs following infusion
  Corrected Concentration: 0.061 ng/mL
[4]; 5 hrs following infusion
  Corrected Concentration: 0.022 ng/mL
[4]; 6 hrs following infusion
  Corrected Concentration: 0.005 ng/mL
[4]; 12 hrs following infusion
  Corrected Concentration: 0.018 ng/mL
[4]; Predose
  Corrected Concentration: 0.024 ng/mL
[4]; human, blood, intravenous, terminal elimination rate using the LOQ of 0.2 ng/ml
  half-life: 20 min
[4]; human, blood, intravenous, using the point just below the LOQ, excluding and including the Cmax values
  half-life: 25 to 30 min
[4]; human, blood, intravenous, CHF patient (NYHA class III), following infusion
  Tmax: 30 min
[4]; human, blood, iv, 0.5 hrs following infusion, read-out: Concentration
  level at 0.5 h: 4.4 ng/mL
[4]; human, blood, iv, 1 hrs following infusion, read-out: Concentration
  level at 1 h: 4.4 ng/mL
[4]; human, blood, iv, 1.5 hrs following infusion, read-out: Concentration
  level at 1.5 h: 1.2 ng/mL
[4]; human, blood, iv, 2 hrs following infusion, read-out: Concentration
  level at 2 h: 0.58 ng/mL
[4]; human, blood, iv, 3 hrs following infusion, read-out: Concentration
  level at 3 h: 0.16 ng/mL
[4]; human, blood, iv, 4 hrs following infusion, read-out: Concentration
  level at 4 h: 0.085 ng/mL
[4]; human, blood, iv, 5 hrs following infusion, read-out: Concentration
  level at 5 h: 0.046 ng/mL
[4]; human, blood, iv, 6 hrs following infusion, read-out: Concentration
  level at 6 h: 0.029 ng/mL
[4]; human, blood, iv, 12 hrs following infusion, read-out: Concentration
  level at 12 h: 0.042 ng/mL
[4]; human, intravenous, CHF patient (NYHA class III), blood, following infusion, baseline-corrected
  Cmax: 4.38 ng/mL
[4]; measured concentration profile (FIG. 3)
  elimination of VSDL from the blood stream: does not clearly follow first order kinetics
[4]; predose blood sample, CHF patient (NYHA class III)
  baseline (endogenous) VSDL concentration: 0.024 ng/mL
[5]
  symptomatic side effects: without any symptomatic side effects

Reference: patent US9018168B2, “Therapeutic method for treating congestive heart failure” (Madeleine Pharmaceuticals Pty Ltd, priority 2010, dated 2015)
